Source: patent US10294234B2, “HIV inhibitor compounds” (priority 2017, dated 2019)
Where two headings read alike, the source gives them in different places.

Tests used:
[1] = tested on: HIV-1 (IIIB) in MT-4 cells; assay: MT-4 HIV assay; format: cell-based; details: Human immunodeficiency virus 1, MT4, 120 h
How it was run: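 MT-4 cells infected with HIV-1 IIIB (1:250 stock dilution) were incubated with 1:3 serially diluted compounds in RPMI with 10% FBS for 5 days at 37 °C. Cell Titer Glo luminescence was the readout. Plates included mock-infected wells, no-drug wells and 5 uM AZT controls.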

[2] = How it was run: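 Test compounds at 1 uM incubated in duplicate with dog, rat and human liver microsomes (0.5 mg/mL protein) plus NADPH-regenerating system; sampled at 2, 12, 25, 45 and 65 minutes. Parent remaining monitored by LC/MS/MS; Clint calculated from in vitro t1/2.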
[3] = human liver microsomes 0.5 mg/mL, 1 uM compound, NADPH
[4] = rat liver microsomes 0.5 mg/mL, 1 uM compound, NADPH
[5] = HIV-1 (IIIB), MT-4 cells, 5 days, Cell Titer Glo, read-out: EC50

SMILES	Human Pred Cl. [2, 3] [L/H/kg]	Rat. Pred. Cl. [2, 4] [L/H/kg]	EC50 [1] [nM]	EC50 [1, 5] [nM]	Human Pred Cl. ([2]; human, microsomes) [L/H/kg]	Rat. Pred. Cl. ([2]; rat, microsomes) [L/H/kg]
COC(=O)N[C@H](C(=O)N[C@@H](Cc1ccc(C#Cc2cnc(N3CCN(C4COC4)CC3)nc2)cc1)[C@@H](O)CN(Cc1c(F)cc(-c2ccn(C(F)F)n2)cc1F)NC(=O)[C@@H](NC(=O)OC)C(C)(C)C(F)(F)F)C(C)(C)C(F)(F)F [Example 87, methyl ((5S,8S,9S,14S)-11-(4-(1-(difluoromethyl)-1H-pyrazol-3-yl)-2,6-difluorobenzyl)-16,16,16-trifluoro-9-hydroxy-15,15-dimethyl-8-(4-((2-(4-(oxetan-3-yl)piperazin-1-yl)pyrimidin-5-yl)ethynyl)benzyl)-3,6,13-trioxo-5-(1,1,1-trifluoro-2-methylpropan-2-yl)-2-oxa-4,7,11,12-tetraazahexadecan-14-yl)carbamate]	0.13	0.23	4.26			
COC(=O)N[C@H](C(=O)N[C@@H](Cc1ccc(C#Cc2ccc(N3CCN(C4COC4)CC3)nc2)cc1)[C@@H](O)CN(Cc1c(F)cc(-c2cc(F)ccn2)cc1F)NC(=O)[C@@H](NC(=O)OC)C(C)(C)C(F)(F)F)C(C)(C)C(F)(F)F [Example 98, Methyl ((5S,8S,9S,14S)-11-(2,6-difluoro-4-(4-fluoropyridin-2-yl)benzyl)-16,16,16-trifluoro-9-hydroxy-15,15-dimethyl-8-(4-((6-(4-(oxetan-3-yl)piperazin-1-yl)pyridin-3-yl)ethynyl)benzyl)-3,6,13-trioxo-5-(1,1,1-trifluoro-2-methylpropan-2-yl)-2-oxa-4,7,11,12-tetraazahexadecan-14-yl)carbamate]	0.26	0.65		4.97		
COC(=O)N[C@H](C(=O)N[C@@H](Cc1ccc(C#Cc2ccc(N3CC4CCC(C3)N4C3COC3)nc2)cc1)[C@@H](O)CN(Cc1c(F)cc(-c2ccc(C(F)F)cn2)cc1F)NC(=O)[C@@H](NC(=O)OC)C(C)(C)C(F)(F)F)C(C)(C)C(F)(F)F [Example 99, Methyl ((5S,8S,9S,14S)-11-(4-(5-(difluoromethyl)pyridin-2-yl)-2,6-difluorobenzyl)-16,16,16-trifluoro-9-hydroxy-15,15-dimethyl-8-(4-((6-(8-(oxetan-3-yl)-3,8-diazabicyclo [3.2.1]octan-3-yl)pyridin-3-yl)ethynyl)benzyl)-3,6,13-trioxo-5-(1,1,1-trifluoro-2-methylpropan-2-yl)-2-oxa-4,7,11,12-tetraazahexadecan-14-yl)carbamate]				7.96	<0.11	0.26
COC(=O)N[C@H](C(=O)N[C@@H](Cc1ccc(C#Cc2ccc(N3CC4CCC(C3)N4C3COC3)nc2)cc1)[C@@H](O)CN(Cc1c(F)cc(-c2ccc(F)cn2)cc1F)NC(=O)[C@@H](NC(=O)OC)C(C)(C)C(F)(F)F)C(C)(C)C(F)(F)F [Example 102, Methyl ((5S,8S,9S,14S)-11-(2,6-difluoro-4-(5-fluoropyridin-2-yl)benzyl)-16,16,16-trifluoro-9-hydroxy-15,15-dimethyl-8-(4-((6-(8-(oxetan-3-yl)-3,8-diazabicyclo [3.2.1]octan-3-yl)pyridin-3-yl)ethynyl)benzyl)-3,6,13-trioxo-5-(1,1,1-trifluoro-2-methylpropan-2-yl)-2-oxa-4,7,11,12-tetraazahexadecan-14-yl)carbamate]				5.68	0.18	<0.18
COC(=O)N[C@H](C(=O)NN(Cc1c(F)cc(-c2ccc(F)cn2)cc1F)C[C@H](O)[C@H](Cc1ccc(C#Cc2ccc(N3CC4CCC(C3)N4C3COC3)nc2)cc1)NC(=O)[C@@H](NC(=O)OC)C(C)(C)C(F)(F)F)C(C)(C)C [Example 105, Methyl ((5S,8S,9S,14S)-11-(2,6-difluoro-4-(5-fluoropyridin-2-yl)benzyl)-9-hydroxy-15,15-dimethyl-8-(4-((6-(8-(oxetan-3-yl)-3,8-diazabicyclo [3.2.1]octan-3-yl)pyridin-3-yl)ethynyl)benzyl)-3,6,13-trioxo-5-(1,1,1-trifluoro-2-methylpropan-2-yl)-2-oxa-4,7,11,12-tetraazahexadecan-14-yl)carbamate]				3.16	0.39	
COC(=O)N[C@H](C(=O)NN(Cc1c(F)cc(-c2cnccn2)cc1F)C[C@H](O)[C@H](Cc1ccc(C#Cc2ccc(N3CC4CCC(C3)N4C3COC3)nc2)cc1)NC(=O)[C@@H](NC(=O)OC)C(C)(C)C(F)(F)F)C(C)(C)C [Example 107, Methyl ((5S,8S,9S,14S)-11-(2,6-difluoro-4-(pyrazin-2-yl)benzyl)-9-hydroxy-15,15-dimethyl-8-(4-((6-(8-(oxetan-3-yl)-3,8-diazabicyclo[3.2.1]octan-3-yl)pyridin-3-yl)ethynyl)benzyl)-3,6,13-trioxo-5-(1,1,1-trifluoro-2-methylpropan-2-yl)-2-oxa-4,7,11,12-tetraazahexadecan-14-yl)carbamate]				2.23	1.1	
COC(=O)N[C@H](C(=O)N[C@@H](Cc1ccc(C#Cc2ccc(N3CCN(C4CCOC4)CC3)nc2)cc1)[C@@H](O)CN(Cc1c(F)cc(-c2cnn(C(F)F)c2)cc1F)NC(=O)[C@@H](NC(=O)OC)C(C)(C)C(F)(F)F)C(C)(C)C(F)(F)F (stereo partly drawn) [Example 114, Methyl ((5S,8S,9S,14S)-11-(4-(1-(difluoromethyl)-1H-pyrazol-4-yl)-2,6-difluorobenzyl)-16,16,16-trifluoro-9-hydroxy-15,15-dimethyl-3,6,13-trioxo-8-(4-((6-(4-(tetrahydrofuran-3-yl)piperazin-1-yl)pyridin-3-yl)ethynyl)benzyl)-5-(1,1,1-trifluoro-2-methylpropan-2-yl)-2-oxa-4,7,11,12-tetraazahexadecan-14-yl)carbamate]	<0.11	0.28		5.1		

More lines, main results first:

Human Pred Cl. [2, 3] [L/H/kg]	Rat. Pred. Cl. [2, 4] [L/H/kg]	SMILES	EC50 [1] [nM]	EC50 [1, 5] [nM]	Human Pred Cl. ([2]; human, microsomes) [L/H/kg]	Rat. Pred. Cl. ([2]; rat, microsomes) [L/H/kg]
0.14	0.67	COC(=O)N[C@H](C(=O)NN(Cc1c(F)cc(-c2ccn(C3CC3)n2)cc1F)C[C@H](O)[C@H](Cc1ccc(C#Cc2ccc(N3C[C@H]4C[C@@H]3CN4C3COC3)nc2)cc1)NC(=O)[C@@H](NC(=O)OC)C(C)(C)C(F)(F)F)C(C)(C)C [Example 90, Methyl ((5S,8S,9S,14S)-11-(4-(1-cyclopropyl-1H-pyrazol-3-yl)-2,6-difluorobenzyl)-9-hydroxy-15,15-dimethyl-8-(4-((6-((1R,4R)-5-(oxetan-3-yl)-2,5-diazabicyclo[2.2.1]heptan-2-yl)pyridin-3-yl)ethynyl)benzyl)-3,6,13-trioxo-5-(1,1,1-trifluoro-2-methylpropan-2-yl)-2-oxa-4,7,11,12-tetraazahexadecan-14-yl)carbamate]	3.45			
0.19	1.13	COC(=O)N[C@H](C(=O)N[C@@H](Cc1ccc(C#Cc2ccc(N3C[C@H]4C[C@@H]3CN4C3COC3)nc2)cc1)[C@@H](O)CN(Cc1c(F)cc(-c2ncccn2)cc1F)NC(=O)[C@@H](NC(=O)OC)C(C)(C)C(F)(F)F)C(C)(C)C(F)(F)F [Example 93, Methyl ((5S,8S,9S,14S)-11-(2,6-difluoro-4-(pyrimidin-2-yl)benzyl)-16,16,16-trifluoro-9-hydroxy-15,15-dimethyl-8-(4-((6-((1R,4R)-5-(oxetan-3-yl)-2,5-diazabicyclo[2.2.1]heptan-2-yl)pyridin-3-yl)ethynyl)benzyl)-3,6,13-trioxo-5-(1,1,1-trifluoro-2-methylpropan-2-yl)-2-oxa-4,7,11,12-tetraazahexadecan-14-yl)carbamate]		2.49		
0.38	1.39	COC(=O)N[C@H](C(=O)NN(Cc1c(F)cc(-c2ncccn2)cc1F)C[C@H](O)[C@H](Cc1ccc(C#Cc2ccc(N3C[C@H]4C[C@@H]3CN4C3COC3)nc2)cc1)NC(=O)[C@@H](NC(=O)OC)C(C)(C)C(F)(F)F)C(C)(C)C [Example 95]	2.44			
0.46	0.31	COC(=O)N[C@H](C(=O)N[C@@H](Cc1ccc(C#Cc2ccc(N3CCN(C4COC4)CC3)nc2)cc1)[C@@H](O)CN(Cc1c(F)cc(-c2ccc(F)cn2)cc1F)NC(=O)[C@@H](NC(=O)OC)C(C)(C)C(F)(F)F)C(C)(C)C(F)(F)F [Example 97, Methyl ((5S,8S,9S,14S)-11-(2,6-difluoro-4-(5-fluoropyridin-2-yl)benzyl)-16,16,16-trifluoro-9-hydroxy-15,15-dimethyl-8-(4-((6-(4-(oxetan-3-yl)piperazin-1-yl)pyridin-3-yl)ethynyl)benzyl)-3,6,13-trioxo-5-(1,1,1-trifluoro-2-methylpropan-2-yl)-2-oxa-4,7,11,12-tetraazahexadecan-14-yl)carbamate]	4.54			
0.16	0.32	COC(=O)N[C@H](C(=O)N[C@@H](Cc1ccc(C#Cc2cnc(N3CCN(C4COC4)CC3)nc2)cc1)[C@@H](O)CN(Cc1c(F)cc(-c2cnn(C(F)F)c2)cc1F)NC(=O)[C@@H](NC(=O)OC)C(C)(C)C(F)(F)F)C(C)(C)C(F)(F)F [Example 103, Methyl ((5S,8S,9S,14S)-11-(4-(1-(difluoromethyl)-1H-pyrazol-4-yl)-2,6-difluorobenzyl)-16,16,16-trifluoro-9-hydroxy-15,15-dimethyl-8-(4-((2-(4-(oxetan-3-yl)piperazin-1-yl)pyrimidin-5-yl)ethynyl)benzyl)-3,6,13-trioxo-5-(1,1,1-trifluoro-2-methylpropan-2-yl)-2-oxa-4,7,11,12-tetraazahexadecan-14-yl)carbamate]		4.84		
